According to patent publication US20240309043A1, “THERAPEUTICALLY ACTIVE STEROIDAL DERIVATIVES” (Organon R&D Finland Ltd., priority 2017, published 2024):

Key:
Format in all cases: biochemical
[1] = test system: HSD1 enzyme that is expressed in rabbit placenta tissue; assay: Inhibition of E1 to E2 conversion in rabbit placenta tissue homogenate; conditions: for Rabbit placenta inhibition % @100 nM: inhibitor 100 nM, 30 nM estrone, 30 min
[2] = target: T1, recombinant human 17β-HSD2 (Homo sapiens, UniProt P37059); assay: Inhibition of recombinant human 17β-HSD2; conditions: inhibitor 1 μM; 50 nM estradiol, 1 mM NADH, 30 min RT
T1 construct: made in house; host or cells: Sd9 (Sf9) insect cells, baculovirus (Bac to Bac Expression System)
T1 sequence (P37059 1-387): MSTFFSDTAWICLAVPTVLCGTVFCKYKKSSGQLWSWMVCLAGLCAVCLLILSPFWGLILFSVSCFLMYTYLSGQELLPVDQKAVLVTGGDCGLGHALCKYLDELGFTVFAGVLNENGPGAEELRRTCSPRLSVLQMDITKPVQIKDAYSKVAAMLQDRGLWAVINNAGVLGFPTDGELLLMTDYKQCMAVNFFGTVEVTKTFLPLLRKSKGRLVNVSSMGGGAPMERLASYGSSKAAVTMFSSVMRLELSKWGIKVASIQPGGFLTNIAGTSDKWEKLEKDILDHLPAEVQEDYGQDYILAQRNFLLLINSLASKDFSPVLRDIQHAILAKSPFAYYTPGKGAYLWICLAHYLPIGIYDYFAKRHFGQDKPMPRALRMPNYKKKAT
Summary of the method: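 Sf9 baculovirus-expressed enzyme membrane extract (4 μg/ml) incubated 30 min at RT in 20 mM KH2PO4 pH 8.5 with 50 nM estradiol (³H-tracer) and 1 mM NADH, inhibitor at 1 μM or 0.1 μM, 1% DMSO. TCA-stopped; estradiol-to-estrone conversion by radio-HPLC, % inhibition = 100 − % conversion.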

[3] = target: T2, recombinant human 17β-HSD1 (Homo sapiens, UniProt P14061); assay: Inhibition of recombinant human 17β-HSD1; conditions: inhibitor 100 nM; 30 nM estrone, 1 mM NADPH, 30 min RT
T2 construct: made in house; host or cells: Sd9 (Sf9) insect cells, baculovirus (Bac to Bac Expression System)
T2 sequence (P14061 1-328): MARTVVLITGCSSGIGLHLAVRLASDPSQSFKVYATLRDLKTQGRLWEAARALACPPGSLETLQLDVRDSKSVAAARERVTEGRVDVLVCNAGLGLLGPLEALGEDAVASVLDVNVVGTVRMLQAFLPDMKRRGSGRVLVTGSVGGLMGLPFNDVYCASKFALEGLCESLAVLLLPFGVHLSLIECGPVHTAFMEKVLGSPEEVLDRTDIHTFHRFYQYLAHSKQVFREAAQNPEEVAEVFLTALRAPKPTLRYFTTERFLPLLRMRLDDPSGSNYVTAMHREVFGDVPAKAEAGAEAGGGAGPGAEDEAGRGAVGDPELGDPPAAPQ
Summary of the method: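 Microsomes from Sf9 cells expressing human 17β-HSD1 (1 μg/ml) were incubated for 30 min at RT in 20 mM KH2PO4 pH 7.4 with 30 nM ³H-estrone, 1 mM NADPH and inhibitor at 1 μM or 0.1 μM (1% DMSO). Estrone-to-estradiol conversion was measured by radio-HPLC after TCA stop, and % inhibition was taken as 100 − % conversion.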

Row | SMILES | Rabbit placenta inhibition % @100 nM [1] | inhibition at 1 µM [2] | inhibition at 0.1 µM [3] | Rabbit placenta inhibition % @1000 nM ([1]; inhibitor 1000 nM)
1 | CNC(=O)CC[C@@H]1C/C(=N\O)[C@@]2(C)CCC3c4cccc(F)c4CCC3C12 (stereo partly drawn) [Compound 118, 3-((13S,15R,E)-4-fluoro-17-(hydroxyimino)-13-methyl-7,8,9,11,12,13,14,15,16,17-decahydro-6H-cyclopenta[a]phenanthren-15-yl)-N-methylpropanamide] | −1% | 2% | 43% | 
2 | C[C@]12CCC3c4ccccc4CCC3C1[C@H](CCC(=O)Nc1ccc(C#N)cn1)C/C2=N\O (stereo partly drawn) [Compound 100, N-(5-cyanopyridin-2-yl)-3-((13S,15R,E)-17-(hydroxyimino)-13-methyl-7,8,9,11,12,13,14,15,16,17-decahydro-6H-cyclopenta[a]phenanthren-15-yl)propanamide] | 12% | -2% | 51% | 
3 | C[C@]12CCC3c4ccc(Cl)cc4CCC3C1[C@H](CCC(=O)N1CCC3(CCOCC3)C1)C/C2=N\O (stereo partly drawn) [Compound 48, 3-((13S,15R,E)-3-chloro-17-(hydroxyimino)-13-methyl-7,8,9,11,12,13,14,15,16,17-decahydro-6H-cyclopenta[a]phenanthren-15-yl)-1-(8-oxa-2-azaspiro[4.5]decan-2-yl)propan-1-one] | 1% | -2% | 30% | 
4 | CCN(CC)C(=O)CC[C@@H]1C/C(=N\O)[C@@]2(C)CCC3c4cccc(F)c4CCC3C12 (stereo partly drawn) [Compound 24, N,N-diethyl-3-((13S,15R,E)-4-fluoro-17-(hydroxyimino)-13-methyl-7,8,9,11,12,13,14,15,16,17-decahydro-6H-cyclopenta[a]phenanthren-15-yl)propanamide] | 18% | 12% | 85% | 
5 | CN1CCN(c2ccc(NC(=O)CC[C@@H]3C/C(=N\O)[C@@]4(C)CCC5c6cccc(F)c6CCC5C34)nc2)CC1 (stereo partly drawn) [Compound 116, 3-((13S,15R,E)-4-fluoro-17-(hydroxyimino)-13-methyl-7,8,9,11,12,13,14,15,16,17-decahydro-6H-cyclopenta[a]phenanthren-15-yl)-N-(5-(4-methylpiperazin-1-yl)pyridin-2-yl)propanamide] | 76% | 26% | 85% | 
6 | Cc1ccc(NC(=O)CC[C@@H]2C/C(=N\O)[C@@]3(C)CCC4c5ccc(F)cc5CCC4C23)nn1 (stereo partly drawn) [Compound 32, 3-((13S,15R,E)-3-fluoro-17-(hydroxyimino)-13-methyl-7,8,9,11,12,13,14,15,16,17-decahydro-6H-cyclopenta[a]phenanthren-15-yl)-N-(6-methylpyridazin-3-yl)propanamide] | 55% | 9% | 35% | 
7 | Cc1cnc(NC(=O)CC[C@@H]2C/C(=N\O)[C@@]3(C)CCC4c5ccc(Cl)cc5CCC4C23)o1 (stereo partly drawn) [Compound 64, 3-((13S,15R,E)-3-chloro-17-(hydroxyimino)-13-methyl-7,8,9,11,12,13,14,15,16,17-decahydro-6H-cyclopenta[a]phenanthren-15-yl)-N-(5-methyloxazol-2-yl)propanamide] | 5% | 0% | 26% | 
8 | C[C@]12CCC3c4cccc(F)c4CCC3C1[C@H](CCC(=O)N1CCC3(CCOCC3)C1)C/C2=N\O (stereo partly drawn) [Compound 128, 3-((13S,15R,E)-4-fluoro-17-(hydroxyimino)-13-methyl-7,8,9,11,12,13,14,15,16,17-decahydro-6H-cyclopenta[a]phenanthren-15-yl)-1-(8-oxa-2-azaspiro[4.5]decan-2-yl)propan-1-one] | 2% | 6% | 59% | 
9 | C[C@]12CCC3c4ccc(F)cc4CCC3C1[C@H](CCC(=O)Nc1ncc(F)cc1F)C/C2=N\O (stereo partly drawn) [Compound 152, N-(3,5-difluoropyridin-2-yl)-3-((13S,15R,E)-3-fluoro-17-(hydroxyimino)-13-methyl-7,8,9,11,12,13,14,15,16,17-decahydro-6H-cyclopenta[a]phenanthren-15-yl)propanamide] | 6% | 2% | 56% | 
10 | Cc1ccnc(NC(=O)CC[C@@H]2C/C(=N\O)[C@@]3(C)CCC4c5ccccc5CCC4C23)c1 (stereo partly drawn) [Compound 88, 3-((13S,15R,E)-17-(hydroxyimino)-13-methyl-7,8,9,11,12,13,14,15,16,17-decahydro-6H-cyclopenta[a]phenanthren-15-yl)-N-(4-methylpyridin-2-yl)propanamide] | 10% | -2% | 65% | 
11 | Cc1cc(NC(=O)CC[C@@H]2C/C(=N\O)[C@@]3(C)CCC4c5ccc(F)cc5CCC4C23)no1 (stereo partly drawn) [Compound 134, 3-((13S,15R,E)-3-fluoro-17-(hydroxyimino)-13-methyl-7,8,9,11,12,13,14,15,16,17-decahydro-6H-cyclopenta[a]phenanthren-15-yl)-N-(5-methylisoxazol-3-yl)propanamide] | 46% | -3% | 75% | 
12 | C[C@]12CCC3c4ccc(Cl)cc4CCC3C1[C@H](CCC(=O)Nc1ccc(C#N)cn1)C/C2=N\O (stereo partly drawn) [Compound 72, 3-((13S,15R,E)-3-chloro-17-(hydroxyimino)-13-methyl-7,8,9,11,12,13,14,15,16,17-decahydro-6H-cyclopenta[a]phenanthren-15-yl)-N-(5-cyanopyridin-2-yl)propanamide] | 26% | 7% | 52% | 
13 | C[C@]12CCC3c4cccc(F)c4CCC3C1[C@H](CCC(=O)Nc1ncc(F)cc1F)C/C2=N\O (stereo partly drawn) [Compound 146, N-(3,5-difluoropyridin-2-yl)-3-((13S,15R,E)-4-fluoro-17-(hydroxyimino)-13-methyl-7,8,9,11,12,13,14,15,16,17-decahydro-6H-cyclopenta[a]phenanthren-15-yl)propanamide] |  | 8% | 92% | 63% @
14 | C[C@]12CCC3c4cccc(F)c4CCC3C1[C@H](CCC(=O)Nc1ncccc1F)C/C2=N\O (stereo partly drawn) [Compound 142, 3-((13S,15R,E)-4-fluoro-17-(hydroxyimino)-13-methyl-7,8,9,11,12,13,14,15,16,17-decahydro-6H-cyclopenta[a]phenanthren-15-yl)-N-(3-fluoropyridin-2-yl)propanamide] | 34% | -1% | 93% | 
15 | C[C@]12CCC3c4ccccc4CCC3C1[C@H](CCC(=O)Nc1cccc(F)n1)C/C2=N\O (stereo partly drawn) [Compound 168, N-(6-fluoropyridin-2-yl)-3-((13S,15R,E)-17-(hydroxyimino)-13-methyl-7,8,9,11,12,13,14,15,16,17-decahydro-6H-cyclopenta[a]phenanthren-15-yl)propanamide] | 6% | 9% | 26% | 
16 | Cc1ccnc(NC(=O)CC[C@@H]2C/C(=N\O)[C@@]3(C)CCC4c5cccc(F)c5CCC4C23)c1 (stereo partly drawn) [Compound 130, 3-((13S,15R,E)-4-fluoro-17-(hydroxyimino)-13-methyl-7,8,9,11,12,13,14,15,16,17-decahydro-6H-cyclopenta[a]phenanthren-15-yl)-N-(4-methylpyridin-2-yl)propanamide] | 40% | 14% | 92% | 
17 | C[C@]12CCC3c4ccccc4CCC3C1[C@H](CCC(=O)Nc1cc3c([nH]c1=O)CCCC3)C/C2=N\O (stereo partly drawn) [Compound 94, 3-((13S,15R,E)-17-(hydroxyimino)-13-methyl-7,8,9,11,12,13,14,15,16,17-decahydro-6H-cyclopenta[a]phenanthren-15-yl)-N-(2-oxo-1,2,5,6,7,8-hexahydroquinolin-3-yl)propanamide] | 8% | 0% | 63% | 
